Results reported in patent publication US10335382B2, “Use of hydrogen sulfide synthesis inhibitors for cancer therapy” (THE BOARD OF REGENTS OF THE UNIVERSITY OF TEXAS SYSTEM, priority 2013, dated 2019).
Entries after “also recorded” stand apart in the source; their conditions may differ.

Tests used:
HCT116 colon cancer cell = HCT116 colon cancer cell proliferation (xCELLigence); assay type: cell-based, human; settings: for inhibition at 300 µM / IC50: Homo sapiens, HCT-116; for IC50: read-out: IC50 (μM), inhibition of HCT116 colon cancer cell proliferation
Description: Cellular proliferation assays are conducted in HCT116 CRC cells in vitro, using the Roche XCelligence method. Concentration-response curves with the various AOAA analogs are prepared (concentration range: 1, 3, 10, 100, 300 and 600 μM). AOAA is used as the reference control, which, according to preliminary data, has an IC50 of approximately 300 μM. Control proliferation studies in the non-carcinogenic colonic epithelial cell line NCM356 are used to confirm cancer-cell selectivity. Since the NCM356 cells contain low levels of CBS, based on previous studies it is expect that AOAA (and its prodrugs) will only exert modest antiproliferative effects in these cells. Proliferation-inhibitory effects of the AOAA prodrugs in NCM356 cells indicate CBS-independent pharmacological actions. A collection of human colorectal tumor tissue samples (and surrounding non-cancerous tissue) are used to test the conversion of the AOAA prodrugs to AOAA in a number of cancer samples.
(§1) Cellular migration and invasion assays were performed as described (Chao et al. (1996) Cancer Res. 56:4811-19). Briefly, 10^5 cells were suspended in serum-free media containing 0.1% BSA and then added to 6.5 mm Transwell chambers ([…]) uncoated (migration assay) or coated with a thin layer (45 μl) of growth factor reduced matrigel (cell invasion assay). Cells were allowed to migrate toward the bottom chamber containing fibroblast (NIH-3T3 cells) conditioned media at 37° C. for 6 or 24 h for cell migration and invasion, respectively. Migrated and invaded cells were then fixed in Carson's fixative, stained in 0.33% toluidine blue and quantified by visual counting. For the HCT116-EAhy926 co-culture experiment, the cancer cell line was grown to confluence in the bottom wells of the transwell chambers and then endothelial cell migration was assessed (Coletta et al. (2012) Proc Natl Acad Sci USA. 109:9161-66). For assessment of colon cell proliferation, the xCELLigence system (Roche) was used (Szabo and Papapetropoulos (2011) Br J Pharmacol. 164:853-65).
For assessment of cell proliferation, the xCELLigence system (Roche) was used. Briefly, HCT116 cells were cultured until approximately 70% confluence. Cells were then detached by Trypsin-EDTA and resuspended in fresh culture media at a concentration of 30,000 cells/ml. 200 μl of cell suspension was added to each well (6,000 cells/well) of a E-plate 96, a specially designed 96-well microtiter plate containing interdigitated microelectrodes to non-invasively monitor the cell proliferation by measuring the relative change in the electrical impedance of the cell monolayer, a unitless parameter named cell index (CI). Cells were then treated with YD02-51 and proliferation was monitored for 48 hours.

HCT116 tumor xenografts = experiment: HCT116 tumor xenograft in nude mice; assay type: in vivo, Nu/nu Balb/C female mice; settings: 0.1, 0.5 or 1 mg/kg s.c. 6 days/week; harvest Day 28
Description: Nu/nu Balb/C female mice (8-10 weeks) were injected subcutaneously in the right and left dorsum (10^6 cells/side with HCT-116 cells). One week later, the mice were randomized and subcutaneous injections of phosphate buffered saline (PBS) or AOAA (9 mg/kg/day) were performed 6 days/week. Tumor diameters were measured transcutaneously using calipers and tumor volumes were calculated using the formula V=(π/6)hd^2. T-test comparisons of the tumor volumes and final weights at harvest were performed. Xenotrials with patient-derived xenografts (PTX) were performed on nu/nu mice implanted subcutaneously with a piece of Passage 2 tumor measuring 2-5 mm^3 each. When a small palpable tumor was evident at 7-10 days, the mice with tumor take were randomized and subjected to subcutaneous injection of vehicle or AOAA (9 mg/kg/day) 6 days/week. Specimens were fixed with 10% formalin and embedded in paraffin. 5 μm sections were stained with hematoxylin and eosin. Each in vivo experiment was repeated at least twice.
Tissue preparation, immunostaining of CD31, and evaluation of microvessel density with the Chakley reticle was performed as described (Chao et al. (1996) Cancer Res. 56:4811-19).
Nu/nu Balb/c female mice (8-10 weeks) were injected subcutaneously in the right and left dorsum (10^6 cells/side with HCT116 cells). One week later, the mice were randomized and subcutaneous injection of phosphate buffered saline (PBS control) or YD2-51 (0.1, 0.5 or 1 mg/kg) was performed 6 days/week. Tumor volumes and final weights at harvest (post-tumor injection Day 28) were performed and tumor weight/animal weight ratios calculated.

HCT116 cells = experiment: HCT116 cell migration and invasion (Transwell); assay type: cell-based, human; settings: NaHS 30 μM in lower chamber; serum-free media
Description: FIG. 3. […] (A, B) The lentiviral shRNA vectors targeting CBS (shCBS) and CSE (shCSE) were transfected into HCT116 cells. A non-targeting sequence was used as control (shNT). […] Following CBS and CSE silencing, cells were seeded at the density of 3000 cells/well in xCELLigence plates and proliferation was monitored for 36 hours. […] The NCM356 cells were infected overnight with a CBS expressing adenovirus (Ad-CBS, 10 multiplicity of infection (MOI)) or its control, a green fluorescent protein (Ad-GFP). The culture media was then replaced and cells were seeded in XCelligence plates at 3000 cells/well. Cell proliferation was then measured real-time over 36 hours. […] (H, I) The effect of AOAA and NaHS was also tested on HCT116 cell migration (H) and invasion (I). Cells were pretreated either with vehicle or AOAA (1 mM) and seeded in serum-free DMEM (0.1% albumin) in the upper chamber of a trans-well insert uncoated (migration assay) or coated with growth factor reduced matrigel (invasion assay). Migration and invasion were stimulated by fibroblast-conditioned media in the lower chamber for 6 and 24 hours, respectively. […] (J) In a co-culture of human endothelial cells (EAhy926) and colon cancer cells (HCT116), HCT 116 cells were seeded in the lower chamber of a trans-well insert and cultured to confluence. Endothelial cells were then seeded into the upper chamber in serum-free DMEM and allowed to migrate for 4 hours at 37° C. […] Western blots are representative of at least three independent experiments; proliferation/migration/invasion assays and H2S measurements represent mean±SEM of n=3 determinations.
as §1, with “109:9161-66).” for “109:9161-66). For assessment of colon cell proliferation, the xCELLigence system (Roche) was used (Szabo and Papapetropoulos (2011) Br J Pharmacol. 164:853-65).”

[1] = system: peritumor microvessel blood flow; experiment: Tumor microvascular blood flow (laser Doppler); assay type: in vivo, mice; settings: intratumoral injection; AOAA 9 mg/kg, L-cysteine 1 mg/kg
Description: FIG. 6. L-Cysteine increases, while AOAA reduces microvessel blood flow in tumor bearing mice. Tumor bearing mice were anesthetized by i.p. injection of ketamine-xylazine and a laser Doppler (PeriFlux system 5000) was placed on top of the tumor for microvessel blood flow measurements. After a stabilization period, L-Cys or AOAA were injected subcutaneously in proximity of the tumor. […] Data represent mean±SEM of n=6 determinations.
Skin microvascular blood flow was measured using a PeriFlux 5000 laser-Doppler flowmeter. Mice bearing PTX were anesthetized by ketamine-xylazine (i.p.). The laser-Doppler probe was placed on top of the tumors and a stable basal signal was recorded. Changes in the subcutaneous microcirculatory perfusion were detected following intratumoral injections of either L-cysteine (1 mg/kg) or AOAA (9 mg/kg).

[2] = system: mitochondria isolated from HCT116 cells; experiment: Bioenergetic analysis in isolated mitochondria; assay type: cell-based, human; settings: L-cysteine 30 nM; mitochondria from control shNT cells
Description: Bioenergetic measurements in mitochondria isolated from shNT and shCBS HCT-116 cells were conducted in the absence or presence of L-cysteine (30 nM) (Módis et al. (2013) FASEB J 27:601-11; Wu et al. (2007) Am J Physiol Cell Physiol. 292:C125-36). Basal respiration (State 2) in the presence of succinate and rotenone was measured, followed by State 3 (phosphorylating respiration), in the presence of ADP. State 4o was determined after the addition of oligomycin, and maximal uncoupler-stimulated respiration (State 3u) was assessed in the presence of FCCP.

SMILES: COC(=O)CON [YD-1-71, aminooxyacetic acid methyl ester]
- antiproliferative effect in HCT116 compared with parent AOAA (HCT116 colon cancer cell; HCT116): markedly enhances the antiproliferative effect; also recorded: substantially lower concentrations
- inhibition at 300 µM (HCT116 colon cancer cell; HCT116): 80%
- IC50 (HCT116 colon cancer cell): 181 µM

SMILES: CCC(CC)OC(=O)CON [YD-2-51, pentan-3-yl 2-(aminooxy)acetate]
- tumor cell proliferation (cell index) (HCT116 colon cancer cell; HCT116, 6,000 cells/well, monitored 48 hours): potent, concentration-dependent inhibition
- tumor growth in tumor-bearing mice (HCT116 tumor xenografts): inhibited tumor growth

SMILES: NOCC(=O)OCc1ccccc1 [YD-2-22]
- inhibition at 300 µM (HCT116 colon cancer cell; HCT116): 91%
- IC50 (HCT116 colon cancer cell): 159 µM

SMILES: [Na+].[SH-] [NaHS, sodium hydrogen sulfide]
- HCT116 cell invasion (HCT116 cells): slightly enhanced
- HCT116 cell migration (HCT116 cells): slightly enhanced

SMILES: CC(C)(C)OC(=O)NOCC(=O)O [YD-2-23]
- inhibition at 300 µM (HCT116 colon cancer cell; HCT116): 71%
- IC50 (HCT116 colon cancer cell): 207 µM

SMILES: N[C@@H](CS)C(=O)O [L-cysteine]
- peritumor / skin microvessel blood flow [1]: increased
- OCR in state 3 and state 3u respiration [2]: elevates OCR
